Measured values: US20260103471A1, “CYCLIC UREA THIAZOLYL COMPOUNDS FOR TREATMENT OF HSV” (Assembly Biosciences, Inc., priority 2022, published 2026)

Legend:
[1] = system: HSV-1; assay: HSV-1 Antiviral Assay (Vero cells, cell viability); assay type: cell-based; details: Human alphaherpesvirus 1, 96 h; Vero cells, 80 TCID50 HSV-1, 4 days, cell viability; read-out: HSV-1 EC50
Experimental: Vero cells were cultured in Dulbecco's Modified Eagle Medium (DMVEM) supplemented with […] and 100 units/mL penicillin and streptomycin. The cells were passaged 2-3 times per week to maintain sub-confluent densities.
Vero cells were seeded into 96-well plates at a density of 2.5×10^3 cells per well and allowed to attach overnight. Following attachment, the media was replaced with 50 μL of infection medium (DMVEM supplemented with 2% fetal bovine serum and 100 units/mL penicillin and streptomycin). A Tecan D300e digital dispenser was then used to add compounds to the culture using an 8-point 3-fold serial dilution format. The DMSO concentration was normalized to 0.5% for all treatments. Following compound addition, 50 μL of infection medium containing 80 TCID50 HSV-1 was added to the cells and incubated at 37° C. for 4 days. After the incubation, the plates were equilibrated to room temperature, the media was removed, and […] a 1:1 dilution of Cell titer glow and phosphate buffered saline was added to the cells. Following a 5-minute incubation, cell viability was quantified by measuring luminance using a Tecan Infinite M1000 Pro plate reader.

[2] = system: HSV-2 G strain; assay: HSV-2 Antiviral Assay (Vero cells, cell viability); assay type: cell-based; details: Human alphaherpesvirus 2, Vero, 120 h, Vero cells, 160 TCID50 HSV-2 G strain, 5 days, cell viability
In short: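 Antiviral readout is survival of infected Vero cells: after 5 days at 37 °C with 160 TCID50 HSV-2 G strain plus serially diluted compound (8 points, 3-fold, 0.5% DMSO), WST-8 was added for 3 h and absorbance measured at 460/620 nm. Cells seeded at 1.0×10^4 per well.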

With `Cc1nc(N2CCCN(c3cnn(-c4ccccc4F)c3)C2=O)sc1S(N)(=O)=O` [Compound 100] the EC50 [1] was 1000 to 5000 nM.

Compound `Cc1nc(N2CCCN(c3ccc(-c4nnco4)cc3)C2=O)sc1S(N)(=O)=O` [Compound 51, 2-(3-(4-(1,3,4-oxadiazol-2-yl)phenyl)-2-oxotetrahydropyrimidin-1(2H)-yl)-4-methylthiazole-5-sulfonamide] has an EC50 [1] of 1000 to 5000 nM.

In the case of `Cc1nc(N2CCCN(c3ccc(-c4cccc(NC(=O)OC(C)(C)C)n4)cc3)C2=O)sc1S(N)(=O)=O` [Compound 34], the EC50 [1] is reported as 100 to 1000 nM.

Compound `Cc1nc(N2CCCN(c3ccc(-c4cnccn4)cc3)C2=O)sc1S(N)(=O)=O` [Compound 39] has an EC50 [1] of 100 to 1000 nM.

For `Cc1nc(N2CCCN(c3ccc(-c4n[nH]c5ccccc45)cc3)C2=O)sc1S(N)(=O)=O` [Compound 91], the EC50 [1] was 100 to 1000 nM.

`Cc1nc(N2CCCN(C(C)c3cccc(-c4ccccc4F)c3)C2=O)sc1S(N)(=O)=O` (centres unmarked) [Compound 177] showed an EC50 [1] of 1000 to 5000 nM.

For `Cc1nc(N2CCCN(Cc3cccc(-c4ccccc4)c3)C2=O)sc1S(=O)(=O)NC1CC1` [Compound 183], the EC50 [1] was 100 to 1000 nM.

`Cc1cnc(-c2ccc(N3CCCN(c4nc(C)c(S(N)(=O)=O)s4)C3=O)cc2)s1` [Compound 44] gave an EC50 [1] of 1000 to 5000 nM.

In the case of `Cc1nc(N2CC3(CC3)CN(c3ccc(-c4ccccc4F)cc3)C2=O)sc1S(N)(=O)=O` [Compound 111], the EC50 [1] is reported as less than 100 nM.

In the case of `Cc1nc(N2CCCN(Cc3cccc(-c4cc(F)ccc4F)c3)C2=O)sc1S(=O)(=O)NC1CC1` [Compound 180], the EC50 [1] is reported as 100 to 1000 nM.

`CCS(=N)(=O)c1sc(N2CCCN(c3ccc(-c4cc(F)ccc4F)cc3)C2=O)nc1C` (centres unmarked) [Compound 148] gave an EC50 [1] of less than 100 nM.

In the case of `Cc1nc(N2CCCN(c3ccc(-c4cccc5cccnc45)cc3)C2=O)sc1S(N)(=O)=O` [Compound 82], the EC50 [1] is reported as 100 to 1000 nM.

`Cc1nc(N2CCCN(c3ccc(-c4cccc5cn(C)nc45)cc3)C2=O)sc1S(N)(=O)=O` [Compound 53] gave an EC50 [1] of 100 to 1000 nM.

With `Cc1nc(N2CC3(CC3)CN(c3ccc(-c4ccccc4F)cc3)C2=O)sc1[S@@](C)(=N)=O` (single isomer, unassigned) [Compound 160] the EC50 [1] was 100 to 1000 nM.

`Cc1nc(N2CCCN(c3ccc(-c4cccc(C(F)(F)F)c4)cc3)C2=O)sc1S(N)(=O)=O` [Compound 15] showed an EC50 [1] of 100 to 1000 nM.

`Cc1nc(N2CCCN(c3ccc(-c4cccc5c4ccn5C)cc3)C2=O)sc1S(N)(=O)=O` [Compound 66] showed an EC50 [1] of less than 100 nM.

With `Cc1nc(N2CCCN(c3ccc(-c4cccn5nncc45)cc3)C2=O)sc1S(N)(=O)=O` [Compound 263] the EC50 [2] was 100 to 1000 nM.

`CCCS(=N)(=O)c1sc(N2CCCN(c3ccc(-c4cc(F)cc(F)c4F)cc3)C2=O)nc1C` (centres unmarked) [Compound 423] gave an EC50 [2] of less than 100 nM.

`Cc1nc(N2CCCN(c3ccc(-c4cccc(-c5cscn5)c4)cc3)C2=O)sc1S(N)(=O)=O` [Compound 229] gave an EC50 [2] of less than 100 nM.

In the case of `Cc1nc(N2CCCN(c3ccc(-c4cc(F)ccc4F)cc3)C2=O)sc1S(=O)(=O)NCCO` [Compound 388, 2-(3-(2′,5′-difluoro-[1,1′-biphenyl]-4-yl)-2-oxotetrahydropyrimidin-1(2H)-yl)-N-(2-hydroxyethyl)-4-methylthiazole-5-sulfonamide], the EC50 [2] is reported as less than 100 nM.

In the case of `Cc1nc(N2CCCN(c3ccc(-c4nccc5ccsc45)cc3)C2=O)sc1S(N)(=O)=O` [Compound 270], the EC50 [2] is reported as less than 100 nM.

`Cc1nc(N2CCCN(c3ccc(-c4cc(C(F)(F)F)cc5nsnc45)cc3)C2=O)sc1S(N)(=O)=O` [Compound 244] was tested, and the EC50 [2] was less than 100 nM.

In the case of `Cc1nc(N2CCCN(c3ccc(-c4cc(F)cc5c4c(C)cn5C)cc3)C2=O)sc1S(N)(=O)=O` [Compound 291], the EC50 [2] is reported as less than 100 nM.

Compound `Cc1nc(N2CCCN(c3ccc(-c4cc(C5(C#N)CC5)ccc4F)cc3)C2=O)sc1S(N)(=O)=O` [Compound 208] has an EC50 [2] of less than 100 nM.

With `Cc1nc(N2CCC(C)N(c3ccc(-c4cc(F)ccc4F)cc3)C2=O)sc1S(N)(=O)=O` (centres unmarked) [Compound 332] the EC50 [2] was less than 100 nM.

Compound `Cc1nc(N2CCCN(c3ccc(-c4cccc(-c5nccs5)c4)cc3)C2=O)sc1S(N)(=O)=O` [Compound 30, 4-methyl-2-(2-oxo-3-(3′-(thiazol-2-yl)-[1,1′-biphenyl]-4-yl)tetrahydropyrimidin-1(2H)-yl)thiazole-5-sulfonamide] has an EC50 [2] of less than 100 nM.

For `Cc1nc2c(-c3ccc(N4CCCN(c5nc(C)c(S(N)(=O)=O)s5)C4=O)cc3)cccc2s1` [Compound 72], the EC50 [2] was less than 100 nM.

In the case of `Cc1nc(N2CC(C#N)CN(c3ccc(-c4cc(F)ccc4F)cc3)C2=O)sc1S(N)(=O)=O` (centres unmarked) [Compound 360, 2-(5-cyano-3-(2′,5′-difluoro-[1,1′-biphenyl]-4-yl)-2-oxotetrahydropyrimidin-1(2H)-yl)-4-methylthiazole-5-sulfonamide], the EC50 [2] is reported as less than 100 nM.

For `Cc1nc(N2CC3(CCCC3)CN(c3ccc(-c4cc(F)ccc4F)cc3)C2=O)sc1S(N)(=O)=O` [Compound 336], the EC50 [2] was less than 100 nM.

Work on `Cc1nc(N2CCCN(c3ccc(-c4cc(F)ccc4F)cc3)C2=O)sc1S(=O)(=O)NCC(F)(F)CO` [Compound 392] yielded an EC50 [2] of less than 100 nM.

With `Cc1nc(N2CCCN(c3ccc(-c4cc(F)ccc4F)cc3)C2=O)sc1S(=O)(=O)N[C@@H]1CC[C@@H](O)C1` [Compound 400] the EC50 [2] was less than 100 nM.

`Cc1nc(N2CCCN(c3ccc(-c4ccc(F)c(F)c4)cc3)C2=O)sc1S(N)(=O)=O` [Compound 190] gave an EC50 [2] of 100 to 1000 nM.

`Cc1nc(N2CCCN(c3ccc(-c4cccc(N)n4)cc3)C2=O)sc1S(=O)(=O)NC1CC1` [Compound 410] was tested, and the EC50 [2] was less than 100 nM.

Compound `Cc1csc(-c2ccc(N3CC4(CC4)CN(c4nc(C)c(S(N)(=O)=O)s4)C3=O)cc2)n1` [Compound 114] has an EC50 [2] of less than 100 nM.

For `Cc1nc(N2CC3(COC3)CN(c3ccc(-c4cc(F)cc5nonc45)cc3)C2=O)sc1S(N)(=O)=O` [Compound 341], the EC50 [2] was less than 100 nM.

`Cc1nc(N2CC3(COC3)CN(c3ccc(-c4cc(F)ccc4F)cc3)C2=O)sc1[S@](C)(=N)=O` (single isomer, unassigned) [Compound 433] gave an EC50 [2] of less than 100 nM.

For `CN=[S@](C)(=O)c1sc(N2CCCN(c3ccc(-c4ccccc4F)cc3)C2=O)nc1C` (single isomer, unassigned) [Compound 146], the EC50 [2] was 100 to 1000 nM.

For `Cc1nc(N2CC3(COC3)CN(c3ccc(-c4cc(F)ccc4F)cc3)C2=O)sc1S(C)(=N)=O` (centres unmarked) [Compound 431], the EC50 [2] was less than 100 nM.

In the case of `Cc1nc(N2CCCN(c3ccc(-c4cc(F)ccc4F)cc3)C2=O)sc1S(=O)(=O)NCCCCO` [Compound 389], the EC50 [2] is reported as less than 100 nM.

`Cc1nc(N2CCCN(c3ccc(-c4cc(F)ccc4F)cc3)C2=O)sc1S(=O)(=O)N1CC[C@@H](N)C1` [Compound 399] gave an EC50 [2] of 100 to 1000 nM.

Compound `Cc1nc(N2CCCN(c3ccc(-c4cc(F)ccc4SC(F)(F)F)cc3)C2=O)sc1S(N)(=O)=O` [Compound 219] has an EC50 [2] of 100 to 1000 nM.

For `Cc1nc(N2CCCCN(c3ccc(-c4cc(F)ccc4F)cc3)C2=O)sc1S(C)(=N)=O` (centres unmarked) [Compound 154], the EC50 [2] was less than 100 nM.

`Cc1nc(N2C[C@@H](C(F)F)CN(c3ccc(-c4cc(F)ccc4F)cc3)C2=O)sc1S(N)(=O)=O` (single isomer, unassigned) [Compound 370] was tested, and the EC50 [2] was less than 100 nM.

`Cc1ncsc1-c1ccc(N2CCCN(c3nc(C)c(S(N)(=O)=O)s3)C2=O)cc1` [Compound 50] showed an EC50 [2] of 100 to 1000 nM.

For `Cc1nc(N2C[C@@H](C(N)=O)CN(c3ccc(-c4cc(F)ccc4F)cc3)C2=O)sc1S(N)(=O)=O` (single isomer, unassigned) [Compound 383], the EC50 [2] was 100 to 1000 nM.

`Cc1cccc(-c2ccc(N3CCCN(c4nc(C)c(S(N)(=O)=O)s4)C3=O)cc2)n1` [Compound 184] showed an EC50 [2] of less than 100 nM.

With `Cc1nc(N2CCCN(c3ccc(-c4cc(F)ccc4F)cc3)C2=O)sc1S(=O)(=O)NC(C)(C)CO` [Compound 402] the EC50 [2] was 100 to 1000 nM.

With `Cc1nc(N2C[C@H](C(C)(C)F)CN(c3ccc(-c4cc(F)ccc4F)cc3)C2=O)sc1S(N)(=O)=O` (single isomer, unassigned) [Compound 352] the EC50 [2] was less than 100 nM.

For `Cc1nc(N2CCCN(c3ccc(-c4cc(F)ccc4F)cc3)C2=O)sc1S(=O)(=O)NO` [Compound 385], the EC50 [2] was 100 to 1000 nM.

`Cc1nc(N2C[C@@H](F)CN(c3ccc(-c4cc(F)ccc4F)cc3)C2=O)sc1S(N)(=O)=O` (single isomer, unassigned) [Compound 365] showed an EC50 [2] of less than 100 nM.

`Cc1nc(N2CCCN(c3ccc(-c4cc(C(C)(F)F)cs4)cc3)C2=O)sc1S(N)(=O)=O` [Compound 241] was tested, and the EC50 [2] was 1000 to 5000 nM.

`Cc1nc(N2CCCN(c3ccc(-c4scnc4C#N)cc3)C2=O)sc1S(N)(=O)=O` [Compound 47] showed an EC50 [2] of 100 to 1000 nM.

In the case of `CO[C@H]1CN(c2ccc(-c3cc(F)ccc3F)cc2)C(=O)N(c2nc(C)c(S(N)(=O)=O)s2)C1` (single isomer, unassigned) [Compound 359], the EC50 [2] is reported as 1000 to 5000 nM.

In the case of `COc1ccncc1-c1ccc(N2CCCN(c3nc(C)c(S(N)(=O)=O)s3)C2=O)cc1` [Compound 233], the EC50 [2] is reported as 100 to 1000 nM.

Compound `Cc1cc(F)cc(-c2ccc(N3CCCN(c4nc(C)c(S(N)(=O)=O)s4)C3=O)cc2)n1` [Compound 237] has an EC50 [2] of less than 100 nM.

For `Cc1nc(N2CCCN(c3ccc(-c4cc(F)ccc4F)cc3)C2=O)sc1S(=O)(=O)Nc1ccc2cc[nH]c2c1` [Compound 407], the EC50 [2] was 100 to 1000 nM.

With `Cc1nc(N2CCCN(c3ccc(-c4cc(Cl)c(F)cn4)cc3)C2=O)sc1S(N)(=O)=O` [Compound 38] the EC50 [2] was 1000 to 5000 nM.

In the case of `COCCCNS(=O)(=O)c1sc(N2CCCN(c3ccc(-c4cc(F)ccc4F)cc3)C2=O)nc1C` [Compound 416], the EC50 [2] is reported as less than 100 nM.

For `Cc1nc(N2CCCN(c3ccc(-n4cnc5ccccc54)cc3)C2=O)sc1S(N)(=O)=O` [Compound 94], the EC50 [2] was 1000 to 5000 nM.
